Laboratory results reported in PMC10439230 (Scientific Reports, 2023).

Legend:
[1] = system: HuCCA-1 (cholangiocarcinoma derived from a patient); assay: Cytotoxic activity assay (MTT); type: cell-based, human; conditions: for IC50: Homo sapiens, HuCC-A1, 48 h exposure, MTT, read-out: Cell lines, IC50 (μM) HuCCA-1; for Selectivity Index (SI) values HuCCA-1: SI = IC50 normal cell (MRC-5)/ IC50 cancer cell
From the text: (§1) The synthetic compounds were screened for their cytotoxic activity using standard MTT or XTT methods[30] against a panel of nine human cancer cell lines and one normal cell line, including MDA-MB-231 (triple-negative breast cancer), T-47D (hormone-dependent breast cancer), HepG2 (hepatocellular carcinoma), A549 (lung adenocarcinoma), H69AR (multidrug-resistant small cell lung carcinoma), HuCCA-1 (cholangiocarcinoma derived from a patient), HeLa (cervical carcinoma), and two leukemia cell lines, HL-60 (acute promyelocytic leukemia) and MOLT-3 (T cell acute lymphoblastic leukemia). MRC-5 normal embryonic lung fibroblast cell line was used to represent normal cells. Chemotherapeutic drugs, doxorubicin and etoposide, were used as positive controls.
(§2) The cells were seeded into 96-well plates (100 µL for adherent cells and 75 µL for suspended cells) at a density of 5000–20,000 cells per well, depending on their growth rates. Adherent and suspended cells were then allowed to grow at 37 °C with 95% humidity and 5% CO2 for 24 h and 30 min, respectively. The cytotoxicity assay was initiated by adding an equal volume of cell culture medium containing tested compound at predetermined concentrations. Following 48 h of exposure, cell viability was determined using MTT assay for adherent cells[51],[52]or XTT assay for suspeended cells. Briefly, for adherent cells, 100 µL of the MTT reagent was added to each well, and the microtiter plates were further incubated for 2.5–4 h. The medium was subsequently replaced with 100 µL of DMSO to dissolve the purple formazan before the absorbance at 550 nm was measured using a microplate reader (a SpectraMax Plus 384) with a reference wavelength of 650 nm. For suspended cells, 75 µL of the XTT reagent was added to each well, and the cells were further incubated for 4 h. Afterwards, the absorbance of orange formazan at 492 nm was measured with a reference wavelength of 690 nm using a microplate reader.

[2] = system: H69AR (multidrug-resistant small cell lung carcinoma); assay: Cytotoxic activity assay (MTT); type: cell-based, human; conditions: for IC50: Homo sapiens, H69AR, 48 h exposure, MTT, read-out: Cell lines, IC50 (μM) H69AR; for Selectivity Index (SI) values H69AR: SI = IC50 normal cell (MRC-5)/ IC50 cancer cell
From the text: as §1, §2

[3] = system: MDA-MB-231 (triple-negative breast cancer); assay: Cytotoxic activity assay (MTT); type: cell-based, human; conditions: for IC50: Homo sapiens, MDA-MB-231, 48 h exposure, MTT, read-out: Cell lines, IC50 (μM) MDA-MB-231; for Selectivity Index (SI) values MDA-MB-231: SI = IC50 normal cell (MRC-5)/ IC50 cancer cell
From the text: as §1, §2

[4] = system: A549 (lung adenocarcinoma); assay: Cytotoxic activity assay (MTT); type: cell-based, human; conditions: for IC50: Homo sapiens, A549, 48 h exposure, MTT, read-out: Cell lines, IC50 (μM) A549; for Selectivity Index (SI) values A549: SI = IC50 normal cell (MRC-5)/ IC50 cancer cell
From the text: as §1, §2

[5] = system: HepG2 (hepatocellular carcinoma); assay: Cytotoxic activity assay (MTT); type: cell-based, human; conditions: for IC50: Homo sapiens, HepG2, 48 h exposure, MTT, read-out: Cell lines, IC50 (μM) HepG2; for Selectivity Index (SI) values HepG2: SI = IC50 normal cell (MRC-5)/ IC50 cancer cell
From the text: as §1, §2

[6] = system: HeLa (cervical carcinoma); assay: Cytotoxic activity assay (MTT); type: cell-based, human; conditions: for IC50: Homo sapiens, 48 h exposure, MTT, read-out: Cell lines, IC50 (μM) HeLa; for Selectivity Index (SI) values HeLa: SI = IC50 normal cell (MRC-5)/ IC50 cancer cell
From the text: as §1, §2

[7] = system: T-47D (hormone-dependent breast cancer); assay: Cytotoxic activity assay (MTT); type: cell-based, human; conditions: for IC50: Homo sapiens, T47D, 48 h exposure, MTT, read-out: Cell lines, IC50 (μM) T47-D; for Selectivity Index (SI) values T47-D: SI = IC50 normal cell (MRC-5)/ IC50 cancer cell
From the text: as §1, §2

[8] = system: HL-60 (acute promyelocytic leukemia); assay: Cytotoxic activity assay (XTT); type: cell-based, human; conditions: for IC50: Homo sapiens, HL-60, 48 h exposure, XTT, read-out: Cell lines, IC50 (μM) HL-60; for Selectivity Index (SI) values HL-60: SI = IC50 normal cell (MRC-5)/ IC50 cancer cell
From the text: as §1, §2

[9] = system: MOLT-3 (T cell acute lymphoblastic leukemia); assay: Cytotoxic activity assay (XTT); type: cell-based, human; conditions: for IC50: Homo sapiens, MOLT-3, 48 h exposure, XTT, read-out: Cell lines, IC50 (μM) MOLT-3; for Selectivity Index (SI) values MOLT-3: SI = IC50 normal cell (MRC-5)/ IC50 cancer cell
From the text: as §1, §2

[10] = system: MRC-5 normal embryonic lung fibroblast cell line; assay: Cytotoxic activity assay (MTT), normal cells; type: cell-based; conditions: Homo sapiens, MRC5, 48 h exposure, read-out: Cell lines, IC50 (μM) MRC-5
From the text: as §1, §2

Compound | IC50 [1] [µM] | Selectivity Index (SI) values HuCCA-1 [1] | IC50 [2] [µM] | Selectivity Index (SI) values H69AR [2] | IC50 [3] [µM] | Selectivity Index (SI) values MDA-MB-231 [3] | IC50 [4] [µM] | Selectivity Index (SI) values A549 [4] | IC50 [5] [µM] | Selectivity Index (SI) values HepG2 [5] | IC50 [6] [µM] | Selectivity Index (SI) values HeLa [6] | IC50 [7] [µM] | Selectivity Index (SI) values T47-D [7] | IC50 [8] [µM] | Selectivity Index (SI) values HL-60 [8] | IC50 [9] [µM] | Selectivity Index (SI) values MOLT-3 [9] | IC50 [10] [µM]
C=C1CCC2C(C)(C)CCCC2(C)C1CCC(C)=CC(=O)O (centres unmarked) [Compound 1, anticopalic acid] | 157.1 ± 0.51 | 1.0 | > 120 | 1.0 | > 120 | 1.0 | 159.1 ± 0.78 | 1.0 | > 120 | 1.0 | 145.2 ± 0.31 | 1.1 | > 120 | 1.0 | 103 ± 10.7 | 1.6 | 66.02 ± 0.12 | 2.5 | > 120
C=C1CCC2C(C)(C)CCCC2(C)C1CCC(C)=CCO (centres unmarked) [Compound 2, anticopalol] | 51.5 ± 0.24 | 1.1 | 111.9 ± 0.71 | 0.5 | 31.77 ± 0.13 | 1.7 | 60.52 ± 0.22 | 0.9 | 52.33 ± 0.34 | 1.0 | 37.49 ± 0.04 | 1.4 | 52.33 ± 0.34 | 1.0 | 27.7 ± 0.31 | 2.0 | 32.2 ± 1.44 | 1.7 | 54.15 ± 0.31
C=C1CCC2C(C)(C)CCC[C@]2(C)[C@H]1CC/C(C)=C/C=O (stereo partly drawn) [Compound 3, (E)-3-methyl-5-((1S,8aS)-5,5,8a-trimethyl-2-methylenedecahydronaphthalen-1-yl)pent-2-enal] | 131.4 ± 1.14 | 1.0 | > 120 | 0.7 | 64.1 ± 1.8 | 2.0 | 142 ± 2.69 | 0.9 | 122.2 ± 1.03 | 1.0 | 77.4 ± 1.47 | 1.6 | 93.9 ± 1.54 | 1.3 | 56.4 ± 1.37 | 2.2 | 37.7 ± 3.2 | 3.3 | 125.8 ± 0.46
C=C1CC[C@H]2C(C)(C)CCC[C@]2(C)[C@H]1CC/C(C)=C/C(=O)NC [Compound 4a, (E)-N,3-Dimethyl-5-((1S,4aS,8aS)-5,5,8a-trimethyl-2-methylenedecahydro-naphthalen-1-yl)pent-2-enamide] | 62.9 ± 1.36 | 0.9 | 122 ± 3.48 | 0.5 | 29.9 ± 0.71 | 1.9 | 65.1 ± 3.57 | 0.9 | 73.4 ± 2.06 | 0.8 | 47.7 ± 1.08 | 1.2 | 73.4 ± 2.06 | 0.8 | 24.7 ± 1.41 | 2.3 | 25.5 ± 0.7 | 2.2 | 55.9 ± 0.19
C=CCNC(=O)/C=C(\C)CC[C@H]1C(=C)CC[C@H]2C(C)(C)CCC[C@]12C [Compound 4b, (E)-N-Allyl-3-methyl-5-((1S,4aS,8aS)-5,5,8a-trimethyl-2-methylenedeca-hydronaphthalen-1-yl)pent-2-enamide] | > 120 | 1.0 | > 120 | 1.0 | 114.3 ± 0.72 | 1.3 | > 120 | 1.0 | 107 ± 1.28 | 1.4 | 79.61 ± 0.49 | 1.8 | > 120 | 1.0 | 22.7 ± 0.84 | 6.4 | 25.4 ± 0.51 | 5.7 | > 120
C=C1CC[C@H]2C(C)(C)CCC[C@]2(C)[C@H]1CC/C(C)=C/C(=O)NCC(=O)O [Compound 4s, ((E)-3-methyl-5-((1S,4aS,8aS)-5,5,8a-trimethyl-2-methylenedecahydro-naphthalen-1-yl)pent-2-enoyl)glycine] | > 120 | 1.0 | > 120 | 1.0 | > 120 | 1.0 | > 120 | 1.0 | – | – | > 120 | 1.0 | > 120 | 1.0 | 75.1 ± 3.24 | 1.8 | 84.14 ± 0.09 | 1.6 | > 120
COc1cccc2c1C(=O)c1c(O)c3c(c(O)c1C2=O)C[C@@](O)(C(=O)CO)C[C@@H]3O[C@H]1C[C@H](N)[C@H](O)[C@H](C)O1 [DOX, doxorubicin, reference compound] | 0.78 ± 0.06 | 1.0 | 38.08 ± 0.29 | – | 2.7 ± 0.16 | 0.3 | 0.38 ± 0.03 | 2.0 | 0.4 ± 0.02 | 1.9 | 0.48 ± 0.01 | 1.6 | 0.47 ± 0.03 | 1.6 | – | – | – | – | 0.76 ± 0.05
COc1cc([C@@H]2c3cc4c(cc3[C@@H](O[C@@H]3O[C@@H]5CO[C@@H](C)O[C@H]5[C@H](O)[C@H]3O)[C@H]3COC(=O)[C@H]23)OCO4)cc(OC)c1O [ETO, etoposide, reference compound] | – | – | – | – | – | – | – | – | – | – | – | – | – | – | 1.21 ± 0.15 | – | 0.07 ± 0.12 | – | –
